How the values were obtained:
Assay type in all cases: cell-based
[1] = molecular target: T1, LasR transcriptional activator (Pseudomonas aeruginosa, UniProt P25084); experiment: P. putida F117 pKRC12 lasB-GFP reporter assay (secondary screens); details: compounds 10 μM, relative fluorescence (fluorescence divided by absorbance at 600 nm) as percent of AHL induced control; for % Activity of AHL Standard, 3 oxo C10HSL: 3oxoC10HSL 100 nM; for % Activity of AHL Standard, 3 oxo C12HSL: 3oxoC12HSL 50 nM
T1 construct: expressed in transfected cells; host or cells: Pseudomonas putida F117 carrying plasmid pKRC12 (lasR, PlasB-gfp)
Experimental: Additional screens were performed similar to screen described in the initial screen, except assays were performed in 96-well microtiter plates at a total volume of 100 μl. The reporter strain P. putida F117 pKRC12 was grown overnight at 28° C. in LB media, diluted with LB media to achieve an optical density of 0.05 at 600 nm (OD600), and 96 μl of cells were aliquoted to 96-well plates. Compounds were added at a final concentration of 100 nm or as otherwise indicated in each experiment and the bacterial cells were incubated with the compounds for approximately 30 minutes prior to the addition of 3oxoC10HSL or 3oxoC12HSL at a final concentration of 100 nM and 50 nM respectively or as indicated for each experiment. Fluorescence was measured at regular intervals after 3 hours using the Wallac Victor2 plate reader with an excitation wavelength of 485 nm and emission detection at 515 nm. Representative results are presented in FIGS. 6A and B and present the percentage of GFP expression activity as a function of expression of the AHL (3oxoC10 HSL) control. The numbers on the X axis refer to the Chembridge library reference number. Effects on growth of the antagonists were determined by measuring the optical density at 600 nm of growing bacterial cultures P. putida F 117 pKRC 12. […] (Reference for P. putida F117 pKRC12: Steidle, A., K. Sigl, R. Schuhegger, A. Ihring, M. Schmid, S. Gantner, M. Stoffels, K. Riedel, M. Givskov, A. Hartmann, C. Langebartels, and L. Eberl. 2001. Visualization of N-acylhomoserine lactone-mediated cell-cell communication between bacteria colonizing the tomato rhizosphere. Appl Environ Microbiol 67:5761-70). […]
This example presents representative results of experiments designed to test the activity of putative antagonists when challenged with different concentrations of synthetic AHLs, particularly 3oxoC12HSL. Assays were conducted with P. putida F117 pKRC12 reporter strain as described in the methods for secondary screens.
Following the initial screens to identify strong antagonists of the LasR transcriptional activator, further investigation of additional compounds in the Chembridge library was carried out. In particular, the experiments described in Example 1 identified three compounds that shared a thiocarbamate structure, as also shown in FIG. 16. To further investigate structure-activity relationships, the inventors examined the antagonist activity of 19 additional compounds with related thiocarbamate structures, using the procedures described in Example 1. The results are presented in Table 4, expressed as the percent activity of the AHL induced control. The % activity represents the relative fluorescence, which is the fluorescence observed in each assay divided by bacterial cell density as measured by absorbance at 600 nm. Compounds were assayed at a concentration of 10 μM. Assays were conducted with P. putida F117 pKRC12 reporter strain as described in the methods for secondary screens. The 3oxoC10HSL and 3oxoC12HSL were assayed at concentrations of 100 nM and 50 nM, respectively.

[2] = molecular target: T2, TraR (Agrobacterium tumefaciens, UniProt P33905); experiment: Agrobacterium tumefaciens KYC55 β-Galactosidase induction plate assay; details: 1 μl of 0.1 mg/ml spotted
T2 construct: expressed in transfected cells; host or cells: Agrobacterium tumefaciens KYC55
Experimental: (§1) Additional screens were performed as described above, except fluorescence was measured using the Wallac Victor2 plate reader with an excitation wavelength of 485 nm and emission detection at 515 nm. E. coli reporter induction assays were performed as described for P. putida. Chromobacterium violaceum CV026 and Agrobacterium tumefaciens KYC55 induction assays were performed by applying compounds to a lawn of bacteria on agar plates. C. violaceum CV026 inhibition assays were performed by applying compounds to a lawn of bacteria on agar plates containing synthetic N-3-oxohexanoyl-L-homoserine lactone.
Agrobacterium tumefaciens KYC55 is a mutant strain that is unable to produce AHLs. Exogenous AHLs must be added to induce the LuxR-type transcriptional regulator which is designated TraR in this strain. This strain contains a plasmid that encodes β-Galactosidase under the transcriptional control of TraR. Activation of TraR is indicated by the production of β-Galactosidase. Cultures were grown overnight at 28° C. in AMA broth. Induction assays were performed by applying compounds to a lawn of bacteria on AMA agar plates containing […] of X-Gal per ml. […] Activation of quorum sensing was qualitatively measured by observing the production the blue pigment that results from β-Galactosidase cleavage of the X-gal substrate in areas where compounds were applied. […]

[3] = molecular target: T3, CviR (Chromobacterium violaceum, UniProt D3W065); experiment: Chromobacterium violaceum CV026 violacein plate assay; details: 1 μl of 0.1 mg/ml spotted
T3 construct: endogenous in cells; host or cells: Chromobacterium violaceum CV026
Experimental: as §1
Chromobacterium violaceum CV026 is a mutant that is unable to produce AHLs. Exogenous AHLs must be added to induce the LuxR-type transcriptional regulator which is designated CviR in this strain. Activation of CviR is indicated by the production of violacein. Cultures were grown overnight at 28° C. in LB media. […] Inhibition of quorum sensing was qualitatively measured by observing the lack of production of violacein in areas where compounds were applied. […] Activation of quorum sensing was qualitatively measured by observing the production of violacein in areas where compounds were applied. […]

T1 sequence (P25084 whole entry): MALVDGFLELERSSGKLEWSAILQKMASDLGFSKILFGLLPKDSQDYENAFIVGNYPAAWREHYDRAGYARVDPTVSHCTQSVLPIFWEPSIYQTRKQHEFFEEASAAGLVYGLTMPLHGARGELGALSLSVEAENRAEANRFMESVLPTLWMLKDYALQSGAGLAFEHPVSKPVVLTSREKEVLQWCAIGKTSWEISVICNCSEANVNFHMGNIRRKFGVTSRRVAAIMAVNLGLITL
T2 sequence (P33905 whole entry): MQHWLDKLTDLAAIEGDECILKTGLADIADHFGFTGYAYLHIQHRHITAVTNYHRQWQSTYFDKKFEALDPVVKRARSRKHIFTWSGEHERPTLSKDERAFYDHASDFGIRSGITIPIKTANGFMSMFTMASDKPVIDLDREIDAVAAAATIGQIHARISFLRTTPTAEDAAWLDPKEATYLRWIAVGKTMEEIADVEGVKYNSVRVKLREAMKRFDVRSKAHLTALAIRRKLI
T3 sequence (D3W065 1-265): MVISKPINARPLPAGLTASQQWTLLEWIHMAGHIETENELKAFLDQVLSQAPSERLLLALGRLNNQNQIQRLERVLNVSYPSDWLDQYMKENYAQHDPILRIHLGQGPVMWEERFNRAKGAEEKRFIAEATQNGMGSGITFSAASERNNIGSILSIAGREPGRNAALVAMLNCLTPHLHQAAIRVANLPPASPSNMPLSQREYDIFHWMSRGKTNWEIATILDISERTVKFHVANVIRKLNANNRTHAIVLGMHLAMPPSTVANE

Structure (SMILES)	% Activity of AHL Standard, 3 oxo C10HSL [1]	% Activity of AHL Standard, 3 oxo C12HSL [1]	Induction of β-Galactosidase (blue zone), control [2]	Activation of quorum sensing (violacein production), control [3]
COc1cccc(NC(=O)CSC(N)=O)c1 [Compound 9]	35.50%	53.30%		
NC(=O)SCC(=O)Nc1cccc(I)c1 [Compound 17]	67.20%	81.20%		
Cc1ccc(NC(=O)CSC(N)=O)c(C)c1 [Compound 18]	40.00%	82.30%		
CCCC(=O)CC(=O)N[C@H]1CCOC1=O [Compound 3oxoC6HSL, N-(3-oxohexanoyl)-L-homoserine lactone]			activated gene expression	activated gene expression
Cc1cccc(NC(=O)CSC(N)=O)c1 [Compound 10]	49.10%	55.40%		
CC(=O)c1ccc(NC(=O)CSC(N)=O)cc1 [Compound 12]	59.20%	64.90%		
COC(=O)c1ccccc1NC(=O)CSC(N)=O [Compound 1]	35.86%	33.64%		
Cc1cccc(NC(=O)CSC(N)=O)c1C [Compound 4]	37.50%	43.00%		
NC(=O)SCC(=O)Nc1cccc(O)c1 [Compound 6]	45.08%	49.68%		
NC(=O)SCC(=O)Nc1cccc(F)c1 [Compound 13]	33.60%	67.60%		
NC(=O)SCC(=O)Nc1ccccc1Br [Compound 11]	36.60%	56.70%		
Cc1ccc(NC(=O)CSC(N)=O)cc1Cl [Compound 3]	32.27%	41.63%		
Cc1ccc(Cl)cc1NC(=O)CSC(N)=O [Compound 5]	56.73%	47.85%		
NC(=O)SCC(=O)Nc1ccc(Cl)c(Cl)c1 [Compound 20]	40.50%	87.70%		
NC(=O)SCC(=O)Nc1ccc(Br)cc1 [Compound 15]	39.00%	70.10%		
COc1ccc(NC(=O)CSC(N)=O)cc1 [Compound 7]	36.45%	49.85%		
COC(=O)c1ccc(NC(=O)CSC(N)=O)cc1 [Compound 22]	57.60%	101.0%		
COc1ccccc1NC(=O)CSC(N)=O [Compound 14]	46.80%	68.60%		
NC(=O)SCC(=O)Nc1cccc(Cl)c1 [Compound 21]	43.30%	88.50%		
CCOC(=O)c1ccccc1NC(=O)CSC(N)=O [Compound 2]	35.50%	40.09%		
NC(=O)SCC(=O)Nc1ccccc1O [Compound 19]	38.60%	82.90%		
COc1ccc(NC(=O)CSC(N)=O)c(OC)c1 [Compound 16]	35.00%	70.90%		
NC(=O)SCC(=O)Nc1ccccc1Cl [Compound 8]	32.72%	51.98%		

From patent US8063108B2, “Method for modulating microbial quorum sensing” (priority 2004, dated 2011)
